Laboratory results taken from patent US9758538B2, “Pyrimidine derivatives” (PFIZER INC., priority 2015, dated 2017).

Each compound was assayed against truncated PI3Kα (p110α/iSH2 p85α), PI3KA_Act (Homo sapiens (Human), UniProt P42336) (assay: PI3Kα biochemical kinase assay, fluorescence polarization format (PI3KA_Act)). Conditions: 0.5 nM p110α/iSH2 p85, 1 mM ATP, 30 μM PIP2, 15-min preincubation; Morrison equation fit; read-out: PI3KA_Act Ki.
Procedure, shortened: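 Enzyme: His-tagged p110α/p85α niSH2 complex from Sf21 baculovirus expression, IMAC-purified, tag cleaved, then SEC. Reactions ran 30 min at room temperature, stopped with 10 mM EDTA pH 8 (final), and were read by fluorescence polarization.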

truncated PI3Kα (p110α/iSH2 p85α), PI3KA_Act, sequence (P42336 whole entry, the tested form may be a part): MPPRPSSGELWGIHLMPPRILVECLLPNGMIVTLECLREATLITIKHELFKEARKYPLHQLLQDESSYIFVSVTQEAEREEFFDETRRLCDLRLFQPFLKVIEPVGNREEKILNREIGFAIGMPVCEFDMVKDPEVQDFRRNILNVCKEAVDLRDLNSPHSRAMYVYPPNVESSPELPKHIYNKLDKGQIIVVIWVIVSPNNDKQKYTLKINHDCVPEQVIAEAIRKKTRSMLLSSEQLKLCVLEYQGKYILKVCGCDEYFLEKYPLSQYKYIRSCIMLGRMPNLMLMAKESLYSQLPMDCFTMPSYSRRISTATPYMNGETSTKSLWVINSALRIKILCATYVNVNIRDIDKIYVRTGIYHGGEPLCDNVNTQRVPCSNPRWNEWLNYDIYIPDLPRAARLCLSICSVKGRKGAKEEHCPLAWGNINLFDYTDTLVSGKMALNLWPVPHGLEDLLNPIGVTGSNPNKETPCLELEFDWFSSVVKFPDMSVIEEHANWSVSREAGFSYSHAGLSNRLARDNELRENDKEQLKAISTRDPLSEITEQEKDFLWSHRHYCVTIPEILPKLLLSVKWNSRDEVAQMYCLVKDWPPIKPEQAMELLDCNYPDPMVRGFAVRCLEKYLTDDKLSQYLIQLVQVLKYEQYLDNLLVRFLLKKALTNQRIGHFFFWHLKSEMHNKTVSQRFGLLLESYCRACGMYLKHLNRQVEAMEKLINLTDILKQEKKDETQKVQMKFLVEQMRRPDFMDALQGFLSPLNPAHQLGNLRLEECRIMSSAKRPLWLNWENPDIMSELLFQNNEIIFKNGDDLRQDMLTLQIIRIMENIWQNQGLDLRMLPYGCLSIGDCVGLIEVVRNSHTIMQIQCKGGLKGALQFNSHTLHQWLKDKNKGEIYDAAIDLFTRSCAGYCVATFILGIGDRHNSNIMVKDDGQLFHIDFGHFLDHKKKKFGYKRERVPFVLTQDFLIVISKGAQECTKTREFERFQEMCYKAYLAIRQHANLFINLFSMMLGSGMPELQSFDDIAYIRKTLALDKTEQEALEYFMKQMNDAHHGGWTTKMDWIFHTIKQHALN

SMILES | Ki
Nc1ncc(-c2nc(N3CCOCC3)nc(N[C@@]3(CO)CCNC3)c2F)cn1 [Example 137, [(3S)-3-{[2′-amino-5-fluoro-2-(morpholin-4-yl)-4,5′-bipyrimidin-6-yl]amino}pyrrolidin-3-yl]methanol] | 48.7 nM
Cc1ncc(-c2cc(N[C@@]3(CO)CCN(C(=O)OCC(F)F)C3)nc(N3CCOCC3)n2)cn1 [Example 138, 2,2-difluoroethyl (3S)-3-(hydroxymethyl)-3-{[2′-methyl-2-(morpholin-4-yl)-4,5′-bipyrimidin-6-yl]amino}pyrrolidine-1-carboxylate] | 0.557 nM
Nc1ncc(-c2nc(N3CCOCC3)nc(N[C@@]3(CO)CCN(C(=O)OCCF)C3)c2F)cn1 [Example 139, 2-fluoroethyl (3S)-3-{[2′-amino-5-fluoro-2-(morpholin-4-yl)-4,5′-bipyrimidin-6-yl]amino}-3-(hydroxymethyl)pyrrolidine-1-carboxylate] | < 0.018 nM
Nc1ncc(-c2cc(N[C@@]3(CO)CCCN(C(=O)OCC(F)F)C3)nc(N3CCOCC3)n2)cn1 [Example 141, 2,2-difluoroethyl (3S)-3-{[2′-amino-2-(morpholin-4-yl)-4,5′-bipyrimidin-6-yl]amino}-3-(hydroxymethyl)piperidine-1-carboxylate] | 0.043 nM
Nc1ncc(-c2nc(N3CCOCC3)nc(N[C@]3(CO)CCCNC3)c2F)cn1 [Example 144, [(3R)-3-{[2′-amino-5-fluoro-2-(morpholin-4-yl)-4,5′-bipyrimidin-6-yl]amino}piperidin-3-yl]methanol] | 13.9 nM
Nc1ncc(-c2nc(N3CCOCC3)nc(N[C@@]3(CO)CCCNC3)c2F)cn1 [Example 145, [(3S)-3-{[2′-amino-5-fluoro-2-(morpholin-4-yl)-4,5′-bipyrimidin-6-yl]amino}piperidin-3-yl]methanol] | 2.53 nM
CCC(=O)N1CCC[C@](CO)(Nc2nc(N3CCOCC3)nc(-c3cnc(N)nc3)c2F)C1 [Example 146, 1-[(3S)-3-{[2′-amino-5-fluoro-2-(morpholin-4-yl)-4,5′-bipyrimidin-6-yl]amino}-3-(hydroxymethyl)piperidin-1-yl]propan-1-one] | 0.237 nM
CCC(=O)N1CCC[C@@](CO)(Nc2nc(N3CCOCC3)nc(-c3cnc(N)nc3)c2F)C1 [Example 147, 1-[(3R)-3-{[2′-amino-5-fluoro-2-(morpholin-4-yl)-4,5′-bipyrimidin-6-yl]amino}-3-(hydroxymethyl)piperidin-1-yl]propan-1-one] | 1.9 nM
Nc1ncc(-c2nc(N3CCOCC3)nc(N[C@]3(CO)CCCN(C(=O)OCC(F)F)C3)c2F)cn1 [Example 148, 2,2-difluoroethyl (3R)-3-{[2′-amino-5-fluoro-2-(morpholin-4-yl)-4,5′-bipyrimidin-6-yl]amino}-3-(hydroxymethyl)piperidine-1-carboxylate] | 2.96 nM

Second part, the compound after the results:

Ki | SMILES
< 0.018 nM | Nc1ncc(-c2nc(N3CCOCC3)nc(N[C@@]3(CO)CCCN(C(=O)OCC(F)F)C3)c2F)cn1 [Example 149, 2,2-difluoroethyl (3S)-3-{[2′-amino-5-fluoro-2-(morpholin-4-yl)-4,5′-bipyrimidin-6-yl]amino}-3-(hydroxymethyl)piperidine-1-carboxylate]
0.8 nM | COCC(=O)N1CCC[C@](CO)(Nc2nc(N3CCOCC3)nc(-c3cnc(N)nc3)c2F)C1 [Example 150, 1-[(3S)-3-{[2′-amino-5-fluoro-2-(morpholin-4-yl)-4,5′-bipyrimidin-6-yl]amino}-3-(hydroxymethyl)piperidin-1-yl]-2-methoxyethanone]
1.82 nM | COCC(=O)N1CCC[C@@](CO)(Nc2nc(N3CCOCC3)nc(-c3cnc(N)nc3)c2F)C1 [Example 151, 1-[(3R)-3-{[2′-amino-5-fluoro-2-(morpholin-4-yl)-4,5′-bipyrimidin-6-yl]amino}-3-(hydroxymethyl)piperidin-1-yl]-2-methoxyethanone]
1.65 nM | CC(=O)N1CCC[C@@](CO)(Nc2nc(N3CCOCC3)nc(-c3cnc(N)nc3)c2F)C1 [Example 152, 1-[(3R)-3-{[2′-amino-5-fluoro-2-(morpholin-4-yl)-4,5′-bipyrimidin-6-yl]amino}-3-(hydroxymethyl)piperidin-1-yl]ethanone]
0.849 nM | CC(=O)N1CCC[C@](CO)(Nc2nc(N3CCOCC3)nc(-c3cnc(N)nc3)c2F)C1 [Example 153, 1-[(3S)-3-{[2′-amino-5-fluoro-2-(morpholin-4-yl)-4,5′-bipyrimidin-6-yl]amino}-3-(hydroxymethyl)piperidin-1-yl]ethanone]
< 0.018 nM | COC(=O)N1CCC[C@](CO)(Nc2nc(N3CCOCC3)nc(-c3cnc(N)nc3)c2F)C1 [Example 154, methyl (3S)-3-{[2′-amino-5-fluoro-2-(morpholin-4-yl)-4,5′-bipyrimidin-6-yl]amino}-3-(hydroxymethyl)piperidine-1-carboxylate]
3.07 nM | COC(=O)N1CCC[C@@](CO)(Nc2nc(N3CCOCC3)nc(-c3cnc(N)nc3)c2F)C1 [Example 155, methyl (3R)-3-{[2′-amino-5-fluoro-2-(morpholin-4-yl)-4,5′-bipyrimidin-6-yl]amino}-3-(hydroxymethyl)piperidine-1-carboxylate]
0.454 nM | Nc1ncc(-c2nc(N3CCOCC3)nc(N[C@@]3(CO)CCCN(C(=O)C4CC4)C3)c2F)cn1 [Example 156, [(3S)-3-{[2′-amino-5-fluoro-2-(morpholin-4-yl)-4,5′-bipyrimidin-6-yl]amino}-3-(hydroxymethyl)piperidin-1-yl](cyclopropyl)methanone]
1.87 nM | Nc1ncc(-c2nc(N3CCOCC3)nc(N[C@]3(CO)CCCN(C(=O)C4CC4)C3)c2F)cn1 [Example 157, [(3R)-3-{[2′-amino-5-fluoro-2-(morpholin-4-yl)-4,5′-bipyrimidin-6-yl]amino}-3-(hydroxymethyl)piperidin-1-yl](cyclopropyl)methanone]
0.102 nM | Nc1ncc(-c2nc(N3CCOCC3)nc(N[C@@]3(CO)CCCN(C(=O)C4(F)CC4)C3)c2F)cn1 [Example 159, [(3S)-3-{[2′-amino-5-fluoro-2-(morpholin-4-yl)-4,5′-bipyrimidin-6-yl]amino}-3-(hydroxymethyl)piperidin-1-yl](1-fluorocyclopropyl)methanone]

Same assay, conditions: PI3KA_Act Ki (nM), 0.5 nM p110α/iSH2 p85, 1 mM ATP, 30 μM PIP2, 15-min preincubation; Morrison equation fit

SMILES | Ki
Nc1ncc(-c2nc(N3CCOCC3)nc(N[C@@]3(CO)CCN(C(=O)OCC(F)(F)F)C3)c2F)cn1 [Example 140, 2,2,2-trifluoroethyl (3S)-3-{[2′-amino-5-fluoro-2-(morpholin-4-yl)-4,5′-bipyrimidin-6-yl]amino}-3-(hydroxymethyl)pyrrolidine-1-carboxylate] | < 0.018 nM
